In patent US9072729B2, “Method for treating fibrosis and cancer with imidazolium and imidazolinium compounds” (Agency for Science, Technology and Research, priority 2008, dated 2015):

Tests used:
CAT = assay: Catalase (CAT) activity assay in treated cells; type: cell-based, rat; conditions: for attenuation of CAT activity: 48 h
Procedure: FIG. 4. […] Enzyme activity was normalized against total protein. DBZIM was dissolved in DMSO, and TDBZIM was dissolved in H2O. The data were presented as mean and SEM, N=6, *^aP<0.05, *^bP<0.01, *^cP<0.005, and *^dP<0.0005, when compared to the vehicle control.
Activity levels of three anti-oxidant enzymes, GPx, CAT and SOD, were determined using assay kits from Cayman Chemical. To assay GPx and CAT activities, protein samples were harvested in ice-cold PBS containing 1 mM of EDTA. […] Protein content was determined by BCA assay.
CAT activity was determined based on reaction of the enzyme with methanol in the presence of H2O2. The formaldehyde produced was measured spectrophotometrically at 540 nm using Purpald as the chromogen. CAT activity was expressed as nmol/min/mg protein.

GFAP = assay: Real-time RT-PCR of GFAP mRNA in HSC T6 cells; type: cell-based, rat
Procedure: (§1) FIG. 6. (a) DBZIM and (b) TDBZIM suppressed the mRNA expression of HSC activation markers (GFAP and SMAA) and fibrotic endpoints (col1a1 and fibronectin) in a dosage-dependent manner. […] The ΔΔCt method was used for relative quantification with vehicle control sample being the calibrator. The data were presented as mean and SEM, N=6, *^aP<0.05, *^bP<0.01, *^cP<0.005, and *^dP<0.0005, when compared to the vehicle control. FIG. 7. DBZIM (100 μM) and TDBZIM (100 μM) suppressed (a) GFAP, (b) SMAA, (c) col1a1 and (d) fibronectin mRNA expression in a time-dependent manner. HSC T6 cells were treated with DBZIM and TDBZIM, and assayed after 8, 24 and 48 h. […] FIG. 14. […] (50 μM), […] (50 μM), […] (10 μM) and DBZBIM (100 μM) were dissolved in DMSO with a final DMSO concentration of 0.2% (v/v). DPIM (2 mM), EGCG (25 μM) and DBZIM (100 μM) were dissolved in H2O. β-actin was used as the normalization gene; its expression was constant under the experimental conditions. Relative quantification was normalized against the respective vehicle control. The data were presented as mean and SEM, N=6, *^aP<0.05, *^cP<0.005, and *^dP<0.0005, when compared to the vehicle control. Total RNA was isolated using NucleoSpin RNAII isolation kit ([…], Germany), and quantified by ND-100 spectrophotometer (Nanodrop Technologies, DE, USA). The details of real-time RT-PCR were reported elsewhere (Zhang et al. 2006). Briefly, it was a two-step real-time RT-PCR using Taqman chemistry. Total RNA was first reverse transcribed to cDNA, and real-time PCR was run and detected in ABI 7500 Fast Real-Time PCR System (Applied Biosystems, CA, USA). Primers and probes for rat GFAP, SMAA, collagen Ia1, fibronectin, TGF-β1, TGF-β receptor I (TGFβ RI) and IL-6 were ordered from Taqman's assay-on-demand database. Rat β-actin was used as normalization gene, and its expression level was constant (CT difference was <±0.5) throughout the experimental settings in this study. Relative quantification of target mRNA was calculated using comparative threshold cycle method (ΔΔCT) as described in User Bulletin #2 (ABI Prism 7700 Sequence Detection System). Relative quantification was given by 2^-ΔΔCT to express the up-regulation or down regulation of the target gene under the treatments compared to the control.

col1a1 = assay: Real-time RT-PCR of col1a1 mRNA in HSC T6 cells; type: cell-based, rat
Procedure: as §1

[1] = system: p53 signaling pathway-associated gene expression in HLE cells; assay: Real-time PCR array of p53 signaling pathway-associated genes; type: cell-based, human; conditions: 48 h; for increase of ATM gene expression vs control: IBN-19 90 uM, IBN-24 90 uM, IBN-25 40 uM
Procedure: FIG. 42. Real-Time PCR array analysis of p53 signaling pathway-associated gene expression. (A) Anti-apoptotic genes. (B) Growth inhibition gene SESN2. (C) Cell cycle check point genes. (D) Cell proliferation genes. (E) DNA repair gene ATM. The relative level of gene expression was normalized with housekeeping gene GAPDH. Values are expressed as mean±standard deviation.
Cells were seeded at a density of 4×10^5 cells per dish in 10 cm dishes. Next day, the cells were exposed to 90 uM of IBN-19, 90 uM of IBN-24, 40 uM of IBN-25 and 0.045% of DMSO (Dimethyl Sulphoxide) as the control. After 48 hrs, total RNAs were extracted from the cells using Nucleospin RNA II kit as per the manufacturer's istructions. RNA quality and yield were evaluated after spectrophotometer measurements.
The human apoptosis PCR array (RT^2 Profiler) was used to analyze mRNA levels of 84 key genes involved in apoptosis, in a 96-well format, according to the manufacturer's instructions (Super Array Bioscience). First-strand cDNA was synthesized with 1 μg of RNA by using a PCR array first strand-synthesis kit (C-03; Super array Bioscience). This kit uses reverse transcriptase (Power Script; Super array Bioscience) and a combination of random primers and oligo dT primers. The total volume of the reaction was 20 μL diluted to 100 μL. PCR reactions were performed using real-time PCR (79s00HT 96-well block with RT^2 Real-Time SYBR Green PCR master mix PA-012; Applied Biosystems Instruments 7500). The total volume of the PCR reaction was 25 μl. An equivalent of […] of RNA was applied to the PCR reaction. The thermocycler parameters were 95° C. for 10 minutes, followed by 40 cycles of 95° C. for 15 seconds and 60° C. for 1 minute. Relative changes in gene expression were calculated using the ΔΔCt (cycle threshold) method. An average of the number of cycles of the five housekeeping genes, GAPDH, Actin-β, β2m, Hprt1, and Rpl13d, was used to normalize the expression between samples. The expression data are presented as fold regulation. GAPDH gene expression levels were utilized as an internal control to normalize the data. Reported fold changes in expression are the ratios of treatment over control values.
To obtain more information on how the IMSs influence other gene expression in the HLE cells, 84 genes related to p53 signal transduction were profiled by using the RT^2 Profiler array (Super Array Bioscience) (FIG. 42A, B, C, D, E). The array includes keys genes relevant to p53, apoptosis, cell cycle, cell growth, proliferation, differentiation, and DNA repair.

## 1,3,5-tris(4-methyl-imidazolium)-linked cyclophane.3Br [TDBZIM]
CAT; 10 μM
  attenuation of CAT activity: 25%
CAT; 50 μM
  attenuation of CAT activity: 31%
CAT; 100 μM
  attenuation of CAT activity: 20%
GFAP; 1 μM, 48 h
  decrease of GFAP mRNA: 32%
GFAP; 10 μM, 48 h
  decrease of GFAP mRNA: 20%
GFAP; 100 μM, 8 h
  decrease of GFAP mRNA: 30%
GFAP; 100 μM, 24 h
  decrease of GFAP mRNA: 36%
GFAP; 100 μM, 48 h
  decrease of GFAP mRNA: 60%
col1a1; 1 μM, 48 h
  decrease of col1a1 mRNA: 39%
col1a1; 10 μM, 48 h
  decrease of col1a1 mRNA: 36%
col1a1; 100 μM, 8 h
  decrease of col1a1 mRNA: 22%
col1a1; 100 μM, 24 h
  decrease of col1a1 mRNA: 40%
col1a1; 100 μM, 48 h
  decrease of col1a1 mRNA: 53%

## (−)-Epigallocatechin gallate [EGCG, reference compound]
CAT; EGCG, NAC (FIG. 4c)
  suppression of CAT activity (references): 13%
GFAP; EGCG 25 μM, 48 h
  inhibition on HSC activation and fibrosis (GFAP, SMAA, fibronectin, col1a1 mRNA): did not show significant inhibition

## [Br-].c1ccc(Cn2cc[n+](Cc3ccccc3)c2)cc1 [DBZIM, 1,3-bisbenzylimidazolium bromide]
CAT; 10 μM
  attenuation of CAT activity: 19%
CAT; 50 μM
  attenuation of CAT activity: 16%
CAT; 100 μM
  attenuation of CAT activity: 12%
CAT; 300 μM, without statistical significance
  attenuation of CAT activity: 8%
GFAP; 10 μM, 48 h
  decrease of GFAP mRNA: 18%
GFAP; 100 μM, 8 h
  decrease of GFAP mRNA: 28%
GFAP; 100 μM, 24 h
  decrease of GFAP mRNA: 40%
GFAP; 100 μM, 48 h
  decrease of GFAP mRNA: 56%
GFAP; 300 μM, 48 h
  decrease of GFAP mRNA: 86%
col1a1; 100 μM, 8 h
  decrease of col1a1 mRNA: 22%
col1a1; 100 μM, 24 h
  decrease of col1a1 mRNA: 29%
col1a1; 100 μM, 48 h
  decrease of col1a1 mRNA: 21%
col1a1; 300 μM, 48 h
  decrease of col1a1 mRNA: 44%

## CC(=O)Oc1ccc(C[n+]2ccn(Cc3ccccc3)c2C)cc1.[Cl-] [IBN-19, 1-benzyl-3-(4-acetate-benzyl)-2-methyl-imidazolium chloride]
[1]
  SESN2 gene expression: markedly induced
  increase of ATM gene expression vs control: 36 folds

## Cc1ccc(C[n+]2ccn(Cc3ccccc3)c2)cc1.[Cl-] [IBN-24, 1-benzyl-3-(4-methylbenzyl)-imidazolium chloride]
[1]
  anti-apoptotic gene BCl-2 expression: significantly down regulated
  cell proliferation genes (Mcl1, Egr1, Foxo3, Jun, Mdm4, Nf1, Prm1D, Sesn1, E2f11, Prkca, Brca1): significantly down regulated
  increase of ATM gene expression vs control: 4.6 folds

## CC(C)n1cc[n+](C(C)C)c1.F[B-](F)(F)F [DPIM, 1,3-diisopropylimidazolium tetrafluoroborate]
GFAP; 48 h, DPIM 2 mM, AMIM 50 μM, TMPHIM 50 μM, DBZBIM 100 μM
  suppression of GFAP mRNA: 78%
col1a1; 48 h, DBIM 1 mM, DPIM 2 mM, TMPHIM 50 μM, DPPHIM 10 μM
  suppression of col1a1 mRNA: 61%
